Results reported in patent US20070270418A1, “Inhibitors of P38 and Methods of Using the Same” (priority 2003, published 2007).

How the values were obtained:
[1] = test system: TNFα release from THP-1 cells; test: TNFα release from LPS-stimulated THP-1 cells; type: cell-based; conditions: Homo sapiens, THP-1, 18 h, LPS 10 μg/ml, 18 hours; read-out: TNFα (THP-1) IC50
Procedure, shortened: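 THP-1 cells (10^6 cells/ml on resuspension) preincubated with compound 30 min at 37°C, 5% CO2, final DMSO ≤0.5%, then stimulated with 10 μg/ml LPS for 18 h (TNFα). Supernatants collected for TNFα analysis.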

[2] = target: T1, p38α (Homo sapiens, UniProt Q16539); test: p38 MAP Kinase assay, ATF2 phosphorylation (ELISA); type: biochemical; conditions: 40 μM ATP
T1 construct: p38 MAP Kinases are recombinant human full-length proteins with an amino-terminal GST fusion; GST (N); purchased Upstate (Charlottesville, Va.); host or cells: E. coli
T1 sequence (Q16539 whole entry, the tested form may be a part): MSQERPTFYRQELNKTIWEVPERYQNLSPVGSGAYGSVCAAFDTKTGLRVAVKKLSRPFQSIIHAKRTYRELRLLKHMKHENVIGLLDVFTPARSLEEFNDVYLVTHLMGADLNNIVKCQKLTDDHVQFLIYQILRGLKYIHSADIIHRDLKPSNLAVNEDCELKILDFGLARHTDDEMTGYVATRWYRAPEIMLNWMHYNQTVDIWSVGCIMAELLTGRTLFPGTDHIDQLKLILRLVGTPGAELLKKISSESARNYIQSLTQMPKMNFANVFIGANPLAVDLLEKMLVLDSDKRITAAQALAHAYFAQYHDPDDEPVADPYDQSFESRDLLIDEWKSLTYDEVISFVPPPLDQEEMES
Procedure, shortened: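 Recombinant full-length GST-tagged human p38α (6 ng) pre-incubated 15 min at room temperature with compound, then reacted 30 min at 37° C with 40 μM ATP and 1.25 μM GST-ATF2 (aa 19-96) in HEPES pH 7.5/MgCl2 buffer. EDTA stop; ATF2 Thr69 phosphorylation measured by anti-phospho-ATF2 ELISA at 450 nm.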

melting point: 149 °C
IC50 [1]: 5.88 nM
IC50 [2]: 5.25 nM
SMILES: CC(C)(CO)CNc1nccc(-c2c(-c3ccc(F)cc3)nc3occn23)n1 [XXXIX, 3-({4-[6-(4-Fluorophenyl)imidazo[2,1-b][1,3]oxazol-5-yl]pyrimidin-2-yl}amino)-2,2-dimethylpropan-1-ol]
